Experiment [1] deals with Somatostatin receptor type 2 (Rattus norvegicus, UniProt P30680).
The target of experiment [2] is Somatostatin receptor type 3 (Rattus norvegicus, UniProt P30936).
Experiment [3] has as its target Somatostatin receptor type 4 (Rattus norvegicus, UniProt P30937).
For experiment [4], the target named is T1, Somatostatin receptor type 5 (Rattus norvegicus, UniProt P30938).
T1 sequence (P30938 whole entry): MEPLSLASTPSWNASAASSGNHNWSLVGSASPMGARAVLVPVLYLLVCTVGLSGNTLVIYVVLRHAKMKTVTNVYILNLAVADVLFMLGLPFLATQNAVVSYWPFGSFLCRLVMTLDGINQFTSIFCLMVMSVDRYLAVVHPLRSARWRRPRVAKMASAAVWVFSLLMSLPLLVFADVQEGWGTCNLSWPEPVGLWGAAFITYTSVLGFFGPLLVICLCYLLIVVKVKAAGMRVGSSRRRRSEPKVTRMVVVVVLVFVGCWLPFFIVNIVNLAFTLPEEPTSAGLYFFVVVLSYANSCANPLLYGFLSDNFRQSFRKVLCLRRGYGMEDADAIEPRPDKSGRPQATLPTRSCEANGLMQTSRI

The target of experiment [5] is Somatostatin receptor type 1 (Rattus norvegicus, UniProt P28646).
Sequence of Somatostatin receptor type 1 (P28646 whole entry): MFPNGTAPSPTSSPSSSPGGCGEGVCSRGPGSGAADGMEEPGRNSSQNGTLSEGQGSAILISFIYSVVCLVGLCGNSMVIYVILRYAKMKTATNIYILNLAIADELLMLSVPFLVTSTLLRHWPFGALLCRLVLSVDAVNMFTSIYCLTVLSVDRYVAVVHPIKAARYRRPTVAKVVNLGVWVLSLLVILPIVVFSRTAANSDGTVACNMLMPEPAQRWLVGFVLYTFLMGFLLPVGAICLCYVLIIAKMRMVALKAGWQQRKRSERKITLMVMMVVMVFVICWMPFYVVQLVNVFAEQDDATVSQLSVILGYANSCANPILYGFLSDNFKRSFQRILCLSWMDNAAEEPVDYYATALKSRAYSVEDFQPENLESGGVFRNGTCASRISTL

Molecules are shown by their SMILES. Numbered stars: 1 amine (or outer) side, 2 acyl side, 3 side chain; on linkers, the order of the positions; unused ones are H or OH. Bridge positions count the residues as written; N and C are the ends. Square brackets hold non-standard residues; d marks the D form. Peptide text beside a SMILES is read from it. ξ: configuration not given here. Phe(4-CH2NHiPr) = CC(C)NCc1ccc(C[C@H](N)C(=O)O)cc1; X1 = CC(C)NCc1ccc(C[C@@H](N[*:1])C(=O)[*:2])cc1; d1Nal = N[C@H](Cc1cccc2ccccc12)C(=O)O; Thr(3ξ) = CC(O)[C@H](N)C(=O)O; ξF = NC(Cc1ccccc1)C(=O)O; ξK = NCCCCC(N)C(=O)O; ξT = CC(O)C(N)C(=O)O

Sequence of Somatostatin receptor type 3 (P30936 whole entry): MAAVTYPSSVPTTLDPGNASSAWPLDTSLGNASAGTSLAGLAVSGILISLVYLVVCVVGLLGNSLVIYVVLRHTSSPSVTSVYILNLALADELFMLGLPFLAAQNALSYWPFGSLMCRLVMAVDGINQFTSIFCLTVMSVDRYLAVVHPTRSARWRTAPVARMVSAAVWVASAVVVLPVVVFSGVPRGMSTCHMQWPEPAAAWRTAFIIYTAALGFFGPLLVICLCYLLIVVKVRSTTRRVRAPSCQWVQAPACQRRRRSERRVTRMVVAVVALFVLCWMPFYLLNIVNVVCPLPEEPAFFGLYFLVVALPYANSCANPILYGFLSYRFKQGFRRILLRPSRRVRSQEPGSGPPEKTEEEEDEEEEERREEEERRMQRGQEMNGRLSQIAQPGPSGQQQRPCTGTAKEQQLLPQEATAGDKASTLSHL
Sequence of Somatostatin receptor type 2 (P30680 whole entry): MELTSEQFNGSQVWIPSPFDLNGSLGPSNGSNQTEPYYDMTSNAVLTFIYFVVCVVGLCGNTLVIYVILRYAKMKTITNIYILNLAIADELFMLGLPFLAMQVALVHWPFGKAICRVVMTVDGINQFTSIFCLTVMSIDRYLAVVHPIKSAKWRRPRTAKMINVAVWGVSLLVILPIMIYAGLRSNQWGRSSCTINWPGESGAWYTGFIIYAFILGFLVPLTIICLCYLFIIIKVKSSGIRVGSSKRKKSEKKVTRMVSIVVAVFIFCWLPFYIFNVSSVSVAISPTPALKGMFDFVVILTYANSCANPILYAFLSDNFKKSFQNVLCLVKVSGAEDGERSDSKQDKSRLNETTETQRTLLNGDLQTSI
Sequence of Somatostatin receptor type 4 (P30937 whole entry): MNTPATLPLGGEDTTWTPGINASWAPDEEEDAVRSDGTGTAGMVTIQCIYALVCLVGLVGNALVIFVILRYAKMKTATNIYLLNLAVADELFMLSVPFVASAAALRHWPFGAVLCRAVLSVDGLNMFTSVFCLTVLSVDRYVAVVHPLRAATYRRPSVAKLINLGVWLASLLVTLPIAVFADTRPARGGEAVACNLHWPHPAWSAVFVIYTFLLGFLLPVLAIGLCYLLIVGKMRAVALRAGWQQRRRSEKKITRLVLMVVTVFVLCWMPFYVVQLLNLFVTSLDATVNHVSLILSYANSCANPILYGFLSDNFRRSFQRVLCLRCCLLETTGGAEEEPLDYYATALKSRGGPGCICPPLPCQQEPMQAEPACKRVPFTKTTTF

Usually Ki stands for a dissociation constant, usually derived from enzyme kinetics or from competition with a known ligand. High values mean a looser hold on the target, low ones a stronger hold on the target. Turning to `C[C@@H](O)[C@H](NC(=O)[C@H](Cc1ccccc1)NC(=O)[C@@H](NC(=O)[C@H](CCCCN)NC(=O)[C@@H](Cc1c[nH]c2ccccc12)NC(=O)[C@H](Cc1ccccc1)NC(=O)[C@H](Cc1ccccc1)NC(=O)[C@H](N)Cc1ccccc1)[C@@H](C)O)C(N)=O` [CAS_133073-82-2] (H-[dF]FF[dW]KTFT-NH2), the Ki in experiment [1] is 163 nM; in experiment [2], 4.6 nM; in experiment [3], 8.4 nM; in experiment [4] it was 8.2 nM.
Take `C[C@H](N)C(=O)NCC(=O)N[C@@H]1CSSC[C@@H](C(=O)O)NC(=O)[C@H](CO)NC(=O)[C@@H]([C@@H](C)O)NC(=O)[C@H](Cc2ccccc2)NC(=O)[C@@H]([C@@H](C)O)NC(=O)[C@H](CCCCN)NC(=O)[C@@H](Cc2c[nH]c3ccccc23)NC(=O)[C@H](Cc2ccccc2)NC(=O)[C@@H](Cc2ccccc2)NC(=O)[C@H](CC(N)=O)NC(=O)[C@@H](CCCCN)NC1=O`: in experiment [4], the Ki is 2.6 nM. This counts as single-digit nanomolar.
With `CC(C)[C@H](NC(=O)[C@H](CCCCN)NC(=O)[C@@H](Cc1c[nH]c2ccccc12)NC(=O)[C@H](Cc1ccc(O)cc1)NC(=O)[C@H](Cc1ccccc1)NC(=O)[C@H](N)Cc1ccccc1)C(=O)N[C@@H](Cc1ccccc1)C(=O)N[C@H](Cc1cccc2ccccc12)C(N)=O` [BIM 23056] (H-[dF]FY[dW]KVF[d1Nal]-NH2), the inhibitory constant (Ki) in experiment [5] was 301 nM; in experiment [1], 835 nM; in experiment [2], 380 nM; in experiment [3] it was 83.8 nM.
Molecule `CC(C)[C@H](NC(=O)[C@H](CCCCN)NC(=O)[C@@H](Cc1c[nH]c2ccccc12)NC(=O)[C@H](Cc1ccc(O)cc1)NC(=O)[C@H](Cc1ccccc1)NC(=O)[C@@H](N)Cc1ccccc1)C(=O)N[C@@H](Cc1ccccc1)C(=O)N[C@H](Cc1cccc2ccccc12)C(N)=O` [BIM 23056] (H-FFY[dW]KVF[d1Nal]-NH2) yielded an inhibitory constant (Ki) in experiment [4] of 32.5 nM.
In turn, `CC(C)NCc1ccc(C[C@H]2NC(=O)[C@H](Cc3c[nH]c4ccccc34)NC(=O)C(Cc3ccccc3)NC(=O)C(Cc3ccccc3)NC(=O)C(CCCCN)NC(=O)[C@H](N)CSSC[C@H](C(=O)O)NC(=O)[C@@H](CO)NC(=O)[C@H](C(C)O)NC(=O)[C@@H](Cc3ccccc3)NC(=O)C(C(C)O)NC2=O)cc1` (stereo not given in full) [CH-275] (H-[dC][ξK][ξF][ξF]W[X1][ξT][dF][Thr(3ξ)][dS][dC]-OH; disulfide 1-11) yielded an inhibition constant (Ki) in experiment [4] of 279 nM.
For the molecule `CC(C)NCc1ccc(C[C@@H]2NC(=O)[C@@H](Cc3c[nH]c4ccccc34)NC(=O)[C@H](Cc3ccccc3)NC(=O)[C@H](Cc3ccccc3)NC(=O)[C@H](CCCCN)NC(=O)[C@@H](N)CSSC[C@@H](C(=O)O)NC(=O)[C@H](CO)NC(=O)[C@H]([C@@H](C)O)NC(=O)[C@H](Cc3ccccc3)NC(=O)[C@H]([C@@H](C)O)NC2=O)cc1` [CH-275] (H-CKFF[dW][Phe(4-CH2NHiPr)]TFTSC-OH; disulfide 1-11), the inhibitory constant (Ki) in experiment [5] was found to be 45.7 nM; in experiment [1] it was 1000 nM; in experiment [2] it was 577 nM; in experiment [3], 465 nM.

These data come from BindingDB's records for doi:10.1046/j.1471-4159.1997.68062263.x (Dynamique Des Systemes Neuroendocriniens, 1997).
